The MIC50 is the lowest concentration that inhibits either 50% of growth or 50% of the strains tested, depending on the study. As a reminder, the MIC90 is an inhibitory concentration at the 90% level, which refers to growth in some studies and to a panel of isolates in others. As a reminder, the Kd is a measure of binding affinity in units of concentration.

In brackets after ≈: the same amount, converted by molar mass.

Experimental findings from ChEMBL document CHEMBL6083229, “Bisubstrate inhibitors of 6-hydroxymethyl-7,8-dihydroptein pyrophosphokinase: Toward cell permeability” (Bioorg Med Chem Lett, 2024) are described below.

The subject of one experiment is Escherichia coli. In words: Antibacterial activity against Escherichia coli MG1655 assessed as inhibition of bacterial growth in LB media. The format is functional.
The test system of experiment [1] is Staphylococcus epidermidis. In words: Antibacterial activity against Staphylococcus epidermidis assessed as inhibition of bacterial growth in LB media. The format is functional.
Experiment [2] in a line: Binding affinity to HPPK (unknown origin) assessed as dissociation constant by MST analysis. More on the design: species or system Bacteria.

For `Nc1nc2[nH]cc(CCCN3CCC(SC[C@H]4O[C@@H](n5cnc6c(N)ncnc65)[C@H](O)[C@@H]4O)CC3C(=O)O)c2c(=O)[nH]1` (stereo partly specified), in the experiment on Escherichia coli, the MIC10 worked out at 400 µM (≈ 240 µg/mL) and the MIC30 is 2000 µM (≈ 1200 µg/mL). Also, in experiment [1], the MIC50 was found to be 120 µM (≈ 72.1 µg/mL) and the MIC90 stood at 240 µM (≈ 144 µg/mL). Further, the MIC in experiment [1] (read-out: MIC100) came to 400 µM (≈ 240 µg/mL). Moreover, the Kd in experiment [2] was 12.8 µM.
